Reference: the NIST ThermoML archive (doi:10.1007/s10765-009-0602-6)
Numbers after ± are expanded uncertainties.

Experiment: molar heat capacity at constant volume; xn = mol fraction of the nth substance listed
Details: x1 = 0.2607

N [ammonia] + O
Details | molar heat capacity at constant volume [J/K/mol]
600.42 K, Fluid (supercritical or subcritical phases), Mass density=309.95 kg/m3, isochoric heat capacity | 99.2 ± 4
600.43 K, Fluid (supercritical or subcritical phases), Mass density=301.94 kg/m3, isochoric heat capacity | 108.54 ± 4.6
600.45 K, Fluid (supercritical or subcritical phases), Mass density=308.35 kg/m3, isochoric heat capacity | 94.94 ± 3.8
600.48 K, Fluid (supercritical or subcritical phases), Mass density=299.79 kg/m3, isochoric heat capacity | 116.67 ± 4.8
600.48 K, Liquid, Isochoric heat capacity | 116.67 ± 4.7
600.5 K, Fluid (supercritical or subcritical phases), Mass density=299.79 kg/m3, isochoric heat capacity | 112.59 ± 4.6
600.5 K, Fluid (supercritical or subcritical phases), Mass density=303.47 kg/m3, isochoric heat capacity | 94.55 ± 3.9
600.51 K, Fluid (supercritical or subcritical phases), Mass density=301.94 kg/m3, isochoric heat capacity | 105.98 ± 4.3
600.51 K, Fluid (supercritical or subcritical phases), Mass density=309.95 kg/m3, isochoric heat capacity | 100.78 ± 4
600.59 K, Fluid (supercritical or subcritical phases), Mass density=299.79 kg/m3, isochoric heat capacity | 104.74 ± 4.2
600.59 K, Fluid (supercritical or subcritical phases), Mass density=301.94 kg/m3, isochoric heat capacity | 99.68 ± 4
600.59 K, Fluid (supercritical or subcritical phases), Mass density=303.47 kg/m3, isochoric heat capacity | 94.4 ± 3.9
600.59 K, Fluid (supercritical or subcritical phases), Mass density=309.95 kg/m3, isochoric heat capacity | 100.97 ± 4
600.62 K, Fluid (supercritical or subcritical phases), Mass density=308.35 kg/m3, isochoric heat capacity | 91.03 ± 3.6
600.63 K, Fluid (supercritical or subcritical phases), Mass density=297.6 kg/m3, isochoric heat capacity | 114.9 ± 4.7
600.63 K, Liquid, Isochoric heat capacity | 114.9 ± 4.6
600.66 K, Fluid (supercritical or subcritical phases), Mass density=303.47 kg/m3, isochoric heat capacity | 95.13 ± 3.9
600.67 K, Fluid (supercritical or subcritical phases), Mass density=299.79 kg/m3, isochoric heat capacity | 101.47 ± 4.2
600.69 K, Fluid (supercritical or subcritical phases), Mass density=309.95 kg/m3, isochoric heat capacity | 95.49 ± 3.8
600.72 K, Fluid (supercritical or subcritical phases), Mass density=297.6 kg/m3, isochoric heat capacity | 112.64 ± 4.5
600.77 K, Fluid (supercritical or subcritical phases), Mass density=297.6 kg/m3, isochoric heat capacity | 109.73 ± 4.5
600.77 K, Fluid (supercritical or subcritical phases), Mass density=299.79 kg/m3, isochoric heat capacity | 98.67 ± 4
600.77 K, Fluid (supercritical or subcritical phases), Mass density=305.44 kg/m3, isochoric heat capacity | 101.79 ± 4.1
600.8 K, Fluid (supercritical or subcritical phases), Mass density=308.35 kg/m3, isochoric heat capacity | 92.66 ± 3.7
600.81 K, Fluid (supercritical or subcritical phases), Mass density=294.44 kg/m3, isochoric heat capacity | 113.83 ± 4.6
600.81 K, Liquid, Isochoric heat capacity | 113.83 ± 4.5
600.85 K, Fluid (supercritical or subcritical phases), Mass density=294.44 kg/m3, isochoric heat capacity | 111.38 ± 4.5
600.85 K, Fluid (supercritical or subcritical phases), Mass density=297.6 kg/m3, isochoric heat capacity | 105.54 ± 4.2
600.85 K, Fluid (supercritical or subcritical phases), Mass density=305.44 kg/m3, isochoric heat capacity | 96.13 ± 3.9
600.86 K, Fluid (supercritical or subcritical phases), Mass density=299.79 kg/m3, isochoric heat capacity | 99.55 ± 4
600.9 K, Fluid (supercritical or subcritical phases), Mass density=342.18 kg/m3, isochoric heat capacity | 88.83 ± 3.6
600.93 K, Fluid (supercritical or subcritical phases), Mass density=292.97 kg/m3, isochoric heat capacity | 112.06 ± 4.6
600.93 K, Liquid, Isochoric heat capacity | 112.06 ± 4.5
600.94 K, Fluid (supercritical or subcritical phases), Mass density=292.97 kg/m3, isochoric heat capacity | 106.05 ± 4.3
600.94 K, Fluid (supercritical or subcritical phases), Mass density=294.44 kg/m3, isochoric heat capacity | 103.91 ± 4.2
600.94 K, Fluid (supercritical or subcritical phases), Mass density=297.6 kg/m3, isochoric heat capacity | 103.82 ± 4.2
600.94 K, Fluid (supercritical or subcritical phases), Mass density=305.44 kg/m3, isochoric heat capacity | 99.89 ± 4
600.94 K, Fluid (supercritical or subcritical phases), Mass density=320.33 kg/m3, isochoric heat capacity | 94.88 ± 3.8
600.98 K, Fluid (supercritical or subcritical phases), Mass density=308.35 kg/m3, isochoric heat capacity | 89.18 ± 3.6
601.02 K, Fluid (supercritical or subcritical phases), Mass density=305.44 kg/m3, isochoric heat capacity | 99.43 ± 4
601.02 K, Fluid (supercritical or subcritical phases), Mass density=320.33 kg/m3, isochoric heat capacity | 95.95 ± 3.8
601.02 K, Fluid (supercritical or subcritical phases), Mass density=342.18 kg/m3, isochoric heat capacity | 87.43 ± 3.5
601.04 K, Fluid (supercritical or subcritical phases), Mass density=292.97 kg/m3, isochoric heat capacity | 101.74 ± 4.2
601.05 K, Fluid (supercritical or subcritical phases), Mass density=291.16 kg/m3, isochoric heat capacity | 111.35 ± 4.6
601.05 K, Liquid, Isochoric heat capacity | 111.35 ± 4.5
601.08 K, Fluid (supercritical or subcritical phases), Mass density=291.16 kg/m3, isochoric heat capacity | 105.11 ± 4.2
601.11 K, Fluid (supercritical or subcritical phases), Mass density=292.97 kg/m3, isochoric heat capacity | 94.42 ± 4.3
601.11 K, Fluid (supercritical or subcritical phases), Mass density=301.94 kg/m3, isochoric heat capacity | 97.37 ± 3.9
601.11 K, Fluid (supercritical or subcritical phases), Mass density=305.44 kg/m3, isochoric heat capacity | 95.1 ± 3.8
601.11 K, Fluid (supercritical or subcritical phases), Mass density=320.33 kg/m3, isochoric heat capacity | 90.05 ± 3.6
601.12 K, Fluid (supercritical or subcritical phases), Mass density=291.16 kg/m3, isochoric heat capacity | 93.41 ± 3.7
601.16 K, Fluid (supercritical or subcritical phases), Mass density=188.05 kg/m3, isochoric heat capacity | 106.16 ± 4.8
601.16 K, Liquid, Isochoric heat capacity | 102.61 ± 4.1
601.19 K, Fluid (supercritical or subcritical phases), Mass density=301.94 kg/m3, isochoric heat capacity | 94.4 ± 3.8
601.19 K, Fluid (supercritical or subcritical phases), Mass density=305.44 kg/m3, isochoric heat capacity | 94.51 ± 3.8
601.19 K, Fluid (supercritical or subcritical phases), Mass density=320.33 kg/m3, isochoric heat capacity | 88.79 ± 3.6
601.2 K, Fluid (supercritical or subcritical phases), Mass density=188.05 kg/m3, isochoric heat capacity | 93.94 ± 4.2
601.21 K, Fluid (supercritical or subcritical phases), Mass density=291.16 kg/m3, isochoric heat capacity | 94.65 ± 3.9
601.21 K, Fluid (supercritical or subcritical phases), Mass density=292.97 kg/m3, isochoric heat capacity | 99.73 ± 4.1
601.24 K, Fluid (supercritical or subcritical phases), Mass density=342.18 kg/m3, isochoric heat capacity | 88.83 ± 3.6
601.28 K, Fluid (supercritical or subcritical phases), Mass density=320.33 kg/m3, isochoric heat capacity | 91.03 ± 3.6
601.29 K, Fluid (supercritical or subcritical phases), Mass density=301.94 kg/m3, isochoric heat capacity | 98.17 ± 3.9
601.3 K, Fluid (supercritical or subcritical phases), Mass density=188.05 kg/m3, isochoric heat capacity | 86.48 ± 3.7
601.34 K, Fluid (supercritical or subcritical phases), Mass density=285.71 kg/m3, isochoric heat capacity | 107.97 ± 4.5
601.34 K, Fluid (supercritical or subcritical phases), Mass density=301.94 kg/m3, isochoric heat capacity | 95.7 ± 3.8
601.34 K, Liquid, Isochoric heat capacity | 107.97 ± 4.3
601.37 K, Fluid (supercritical or subcritical phases), Mass density=285.71 kg/m3, isochoric heat capacity | 99.59 ± 4
601.37 K, Fluid (supercritical or subcritical phases), Mass density=294.44 kg/m3, isochoric heat capacity | 105.52 ± 4.2
601.37 K, Fluid (supercritical or subcritical phases), Mass density=297.6 kg/m3, isochoric heat capacity | 102.84 ± 4.1
601.37 K, Fluid (supercritical or subcritical phases), Mass density=342.18 kg/m3, isochoric heat capacity | 89.33 ± 3.6
601.38 K, Fluid (supercritical or subcritical phases), Mass density=188.05 kg/m3, isochoric heat capacity | 66.72 ± 2.9
601.39 K, Fluid (supercritical or subcritical phases), Mass density=291.16 kg/m3, isochoric heat capacity | 92.22 ± 3.8
601.45 K, Fluid (supercritical or subcritical phases), Mass density=285.71 kg/m3, isochoric heat capacity | 94.44 ± 3.8
601.45 K, Fluid (supercritical or subcritical phases), Mass density=294.44 kg/m3, isochoric heat capacity | 102.41 ± 4.1
601.45 K, Fluid (supercritical or subcritical phases), Mass density=297.6 kg/m3, isochoric heat capacity | 99.66 ± 4
601.45 K, Fluid (supercritical or subcritical phases), Mass density=301.94 kg/m3, isochoric heat capacity | 92.5 ± 3.7
601.46 K, Fluid (supercritical or subcritical phases), Mass density=299.79 kg/m3, isochoric heat capacity | 97 ± 3.9
601.47 K, Fluid (supercritical or subcritical phases), Mass density=320.33 kg/m3, isochoric heat capacity | 92.7 ± 3.7
601.5 K, Fluid (supercritical or subcritical phases), Mass density=188.05 kg/m3, isochoric heat capacity | 72.1 ± 3.2
601.53 K, Fluid (supercritical or subcritical phases), Mass density=299.79 kg/m3, isochoric heat capacity | 99 ± 4
601.54 K, Fluid (supercritical or subcritical phases), Mass density=285.71 kg/m3, isochoric heat capacity | 89.22 ± 3.7
601.54 K, Fluid (supercritical or subcritical phases), Mass density=297.6 kg/m3, isochoric heat capacity | 101.22 ± 4
